Where a name gives a salt, the structure may show the parent alone.
Test: Aerosol analysis at 60 LPM, Turbospin (Example 11)
Protocol: The aerosol performance of a SEDS™ processed sample of bromocriptine mesylate was assessed in a unit-dose passive inhaler device (Turbospin PH & T (Italy)), at a peak inspiratory flow rate (PFIR) of 28.3 LPM and 60 LPM.

With `CC(C)C[C@H]1C(=O)N2CCC[C@H]2[C@]2(O)O[C@](NC(=O)[C@@H]3C=C4c5cccc6[nH]c(Br)c(c56)C[C@H]4N(C)C3)(C(C)C)C(=O)N12` [SEDS bromocriptine, bromocriptine mesylate] the “aerodynamic diameter of aerosol particles” value was 4.2 μm.
